Measurements reported in publication PMC8395244, “The Oxoglutarate Binding Site and Regulatory Mechanism Are Conserved in Ammonium Transporter Inhibitors GlnKs from Methanococcales” (International Journal of Molecular Sciences, 2021).

Tests used:
MtGlnK2 = molecular target: T1, MtGlnK2 (Methanothermococcus thermolithotrophicus, UniProt Z9RMX6QOV2); test: X-ray crystal structure ([…] Å); format: binding; settings: co-crystallised with 2 mM ATP, 2 mM 2OG, 2 mM MgCl2; pH 6.5; inter-subunit cleft
T1 construct: N-terminal His-tag (pET-28a(+)), tag kept (partially visible); codon-optimised gene in E. coli BL21(DE3); circa 12 kDa monomer, trimer; site between adjacent subunits

MjGlnK1^woT = molecular target: T2, MjGlnK1^woT (Methanocaldococcus jannaschii, UniProt Q60381); test: X-ray crystal structure ([…] Å); format: binding; settings: co-crystallised with 2 mM ATP, 2 mM 2OG, 2 mM MgCl2; pH 8.5; inter-subunit cleft
T2 construct: gene glnK1; untagged (stop codon before XhoI in pET-24b(+)); codon-optimised gene in E. coli BL21(DE3); circa 12 kDa monomer, trimer; 2J9D/2J9E are earlier structures of this protein (2J9E C-terminally tagged)
T2 sequence (Q60381 whole entry): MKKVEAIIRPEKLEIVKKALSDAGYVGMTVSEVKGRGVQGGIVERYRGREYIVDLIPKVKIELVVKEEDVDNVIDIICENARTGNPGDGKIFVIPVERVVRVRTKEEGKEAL

Row | Structure (SMILES) | X-ray crystal structure (1.16 Å) (MtGlnK2) | X-ray crystal structure (1.20 Å) (MjGlnK1^woT)
1 | O=C(O)CCC(=O)C(=O)O [2OG] | MtGlnK2 and MjGlnK1^woT structures, co-crystallized with Mg-ATP and 2OG | MtGlnK2 and MjGlnK1^woT structures, co-crystallized with Mg-ATP and 2OG
2 | Nc1ncnc2c1ncn2[C@@H]1O[C@H](COP(=O)(O)OP(=O)(O)OP(=O)(O)O)[C@@H](O)[C@H]1O [ATP] | MtGlnK2 and MjGlnK1^woT structures, co-crystallized with Mg-ATP and 2OG | MtGlnK2 and MjGlnK1^woT structures, co-crystallized with Mg-ATP and 2OG
